What was measured:
KCNQ2/3 channels = molecular target: T1, KCNQ2/3 channels (Homo sapiens, UniProt O43525+O43526); assay: Fluorescence assay using a voltage sensitive dye (fluorimetry); assay type: cell-based; conditions: CHO-K1 cells expressing KCNQ2/3; for Emax: plateau effect relative to saturated Retigabine (50 μM), read-out: Fluorimetry % efficacy (retigabine = 100%); for EC50: voltage-sensitive dye, KCl depolarization, read-out: Fluorimetry EC50/IC50
T1 construct: expressed in transfected cells; host or cells: CHO-K1
Excerpt: Method I. Fluorescence Assay Using a Voltage Sensitive Dye (Fluorimetry)
The modulation of the KCNQ opening state (and consequently the voltage potential of a cell) by test compounds such as compounds according to the present invention results in an increased or reduced amount of a voltage-sensitive dye in the cytoplasm of the cells tested. These voltage-sensitive dyes are fluorescent dyes and, therefore, are forming the link between cell potential influenced by KCNQ modulation and fluorescence intensity. A KCNQ agonist leads to an opening of the channel, potassium and dye efflux, a following hyperpolarization and a reduction of the inner fluorescence intensity in a kinetic protocol. If applying an ion jump by KCl depolarization, KCNQ agonists increase the ΔF/F value. An antagonist performs vice versa, respectively.
The ‘fluorimetry EC50’ is the half maximum effective concentration (EC50), where the concentration of a drug/compound induces a response halfway between the baseline and maximum plateau effect. In other words, said value represents the concentration of a compound, where 50% of its maximal effect in the fluorimetric assay is observed if the substance concentration is graphed against the corresponding ΔF/F values (for which the calculation method is described below). Therefore, ‘fluorimetry EC50’ is a measure for the compound potency. The compound efficacy is mirrored by ‘fluorimetry % efficacy’ (‘% Efficacy’) and refers to the maximum response achievable by the test compound, i.e. the plateau effect. This drug's plateau effect is related to the plateau effect, which can be achieved by applying a saturated concentration of a reference compound, e.g. Retigabine (50 μM), in independent wells of the same experimental plate or series. A compound showing 100% efficacy is as efficacious as the reference compound (Retigabine) with a saturated concentration.
[…] CHO-K1 cells expressing KCNQ2/3 channels are cultivated adherently at 37° C., 5% CO2 and 95% humidity in cell culture bottles (e.g. 80 cm^2 TC flasks, Nunc) with DMEM-high glucose (Sigma Aldrich, D7777) including 10% FCS (PAN Biotech, e.g. 3302-P270521) or alternatively MEM Alpha Medium (1×, liquid, Invitrogen, #22571), 10% fetal calf serum (FCS) (Invitrogen, #10270-106, heat-inactivated) and the necessary selection antibiotics.
Before being sown out for the measurements, the cells are washed with 1× DPBS buffer Ca^2+/Mg^2+-free (e.g. Invitrogen, #14190-094) and detached from the bottom of the culture vessel by using Accutase (PAA Laboratories, #L11-007) (incubation with Accutase for 15 min at 37° C.). The cell number is determined using a CASY™ cell counter (TCC, Schärfe System). Depending on the optimal density for each individual cell line, 20,000-30,000 cells/well/100 μl are seeded onto 96-well Corning™ CellBIND™ assay plates (Flat Clear Bottom Black Polystyrene Microplates, #3340). Freshly seeded cells are then left to settle for one hour at room temperature, followed by incubation for 24 hours at 37° C., 5% CO2 and 95% humidity.
The voltage-sensitive fluorescent dye from the Membrane Potential Assay Kit (Red™ Bulk format part R8123 for FLIPR, MDS Analytical Technologies™) is prepared by dissolving the contents of one vessel Membrane Potential Assay Kit Red Component A in 200 ml of extracellular buffer (ES buffer, 120 mM NaCl, 1 mM KCl, 10 mM HEPES, 2 mM CaCl2, 2 mM MgCl2, 10 mM glucose; pH 7.4). After removal of the nutrient medium, the cells are washed once with 200 μl of ES buffer, then loaded for 45 min at room temperature in 100 μl of dye solution in the dark.
Fluorescence measurements are carried out in a BMG Labtech FLUOstar™, BMG Labtech NOVOstar™ or BMG Labtech POLARstar™ instrument (525 nm excitation, 560 nm emission, Bottom Read mode). […]

Male Sprague-Dawley rats = assay: Low-intensity tail flick test (rat); assay type: in vivo; conditions: for ED50: po, peroral, at time of maximum efficacy
Method: Method II. Low-Intensity Tail Flick Test (Rat)
In the low-intensity tail flick test, the determination of the antinociceptive effect of the compounds according to the invention towards an acute noxious thermal stimulus is carried out by measuring the withdrawal reflex of the rat tail (tail flick) in response to a radiant heat beam (analgesia meter; model 2011 of the company Rhema Labortechnik, Hofheim, Germany) according to the method described by D'Amour and Smith (J. Pharm. Exp. Ther. 72, 74 79 (1941). To this end, the rats were placed in a plexiglas restrainer, and a low-intensity radiant heat beam (48° C.) was focused onto the dorsal surface of the tail root. The stimulus intensity was adjusted to result in a mean pre-drug control withdrawal latency of about 7 s, thus also allowing a supraspinal modulation of the spinally mediated acute nociceptive reflex. A cutoff time of 30 s was applied to avoid tissue damage. Male Sprague-Dawley rats (Janvier, Le Genest St. Isle, Frankreich) with weights of 200-250 g were used. 10 rats were used per group. Before administration of a compound according to the invention, the animals were pre-tested twice in the course of five minutes and the mean of these measurements was calculated as the pre-test mean. The antinociceptive effect was determined at 20, 40 and 60 min after peroral compound administration. The antinociceptive effect was calculated based on the increase in the tail withdrawal latency according to the following formula and is expressed as percentage of the maximum possible effect (MPE [%]): MPE=[(T1−T0)/(T2−T0)]*100
In this, T0 is the control latency time before and T1 the latency time after administration of the compound, T2 is the cutoff time and MPE is the maximum possible effect. Employing variant analysis (repeated measures ANOVA) allowed testing of statistically significant differences between the compounds according to the invention and the vehicle group. The significance level was set to p≦0.05. To determine the dose dependency, the particular compound according to the invention was administered in 3-5 logarithmically increasing doses, including a threshold dose and a maximum effective dose, and the ED50 values were determined with the aid of regression analysis. The ED50 calculation was performed at the time of maximum efficacy (usually 20 min after administration of the compounds).

Row | Structure (SMILES) | Emax (KCNQ2/3 channels) [%] | EC50 (KCNQ2/3 channels) [nM] | Low intensity tail flick, rat, peroral, MPE (dose) (Male Sprague-Dawley rats; dose 14.7 mg/kg) [%] | ED50 (Male Sprague-Dawley rats) [mg/kg] | Low intensity tail flick, rat, peroral, MPE (dose) (Male Sprague-Dawley rats; dose 10 mg/kg) [%]
1 | Cc1cc(N2CCOCC2)cc(C(F)(F)F)c1C(=O)NCc1ccc(Cl)cc1 [Example 19, N-[(4-Chlorophenyl)-methyl]-2-methyl-4-morpholin-4-yl-6-(trifluoromethyl)-benzamide] | 185 | 400 |  |  | 
2 | CCSc1cc(N2CCOC[C@H]2C)cc(C)c1C(=O)NCc1ccc(Cl)cc1 [Example 4, N-[(4-Chlorophenyl)-methyl]-2-ethylsulfanyl-6-methyl-4-[(3R)-3-methyl-morpholin-4-yl]-benzamide] | 200 | 260 |  |  | 
3 | CC[S+]([O-])c1cc(N2CCOCC2)cc(C)c1C(=O)NCCCC(C)(C)C (stereo not shown) [Example 7, N-(4,4-Dimethyl-pentyl)-2-(ethylsulfinyl)-6-methyl-4-morpholin-4-yl-benzamide] | 66 | 8800 |  |  | 
4 | Cc1cc(N2CCOCC2)cc(C2CC2)c1C(=O)NCC(O)CC(C)(C)C (stereo not shown) [Example 32, 2-Cyclopropyl-N-(2-hydroxy-4,4-dimethyl-pentyl)-6-methyl-4-morpholin-4-yl-benzamide] | 159 | 3810 |  |  | 
5 | Cc1cc(N2CCOCC2)cc(C2CCCC2)c1C(=O)NCc1ccc(Cl)cc1 [Example 16, N-[(4-Chlorophenyl)-methyl]-2-cyclopentyl-6-methyl-4-morpholin-4-yl-benzamide] | 194 | 33 |  |  | 

Continued, in another order:

Row | Emax (KCNQ2/3 channels) [%] | EC50 (KCNQ2/3 channels) [nM] | Structure (SMILES) | Low intensity tail flick, rat, peroral, MPE (dose) (Male Sprague-Dawley rats; dose 14.7 mg/kg) [%] | ED50 (Male Sprague-Dawley rats) [mg/kg] | Low intensity tail flick, rat, peroral, MPE (dose) (Male Sprague-Dawley rats; dose 10 mg/kg) [%]
6 | 179 | 663 | Cc1cc(N2CCOCC2)cc(C(C)C)c1C(=O)NCc1ccc(F)cc1 [Example 17, N-[(4-Fluorophenyl)methyl]-2-isopropyl-6-methyl-4-morpholin-4-yl-benzamide] | 100 | 2.5 | 
7 | 175 | 136 | Cc1cc(N2CCOCC2)cc(C(C)C)c1C(=O)NCc1ccc(Cl)cc1 [Example 14, N-[(4-Chlorophenyl)-methyl]-2-isopropyl-6-methyl-4-morpholin-4-yl-benzamide] |  | 3.6 | 92
8 | 148 | 184 | Cc1cc(N2CCOCC2)cc(C(C)C)c1C(=O)NCc1ccc(C(F)(F)F)cc1 [Example 22, 2-Isopropyl-6-methyl-4-morpholin-4-yl-N-[[4-(trifluoromethyl)-phenyl]-methyl]-benzamide] |  |  | 
9 | 147 | 1640 | COc1cc(N2CCOCC2)cc(C)c1C(=O)NCc1ccc(Cl)cc1 [Example 10, N-[(4-Chlorophenyl)-methyl]-2-methoxy-6-methyl-4-morpholin-4-yl-benzamide] |  |  | 
10 | 169 | 982 | Cc1cc(N2CCOCC2)cc(C2CC2)c1C(=O)NCc1ccc(F)cc1 [Example 18, 2-Cyclopropyl-N-[(4-fluorophenyl)-methyl]-6-methyl-4-morpholin-4-yl-benzamide] |  |  | 
11 | 152 | 483 | CCSc1cc(N2CCOCC2)cc(C)c1C(=O)NCc1ccc(Cl)cc1 [Example 2, N-[(4-Chlorophenyl)-methyl]-2-ethylsulfanyl-6-methyl-4-morpholin-4-yl-benzamide] |  |  | 
12 | 196 | 165 | COc1cc(N2CCOCC2)cc(C(C)C)c1C(=O)NCc1ccc(Cl)cc1 [Example 40, N-[(4-Chlorophenyl)-methyl]-2-isopropyl-6-methoxy-4-morpholin-4-yl-benzamide] |  |  | 

Reference: US9108936B2, “Substituted 4-aminobenzamides as KCNQ2/3 modulators” (GRUENENTHAL GMBH, priority 2012, dated 2015)
